Format in all cases: in vivo, rat
One experiment deals with 5-HT1B receptor mRNA. The experiment in a line: Real-time PCR of receptor mRNA in cerebral arteries after SAH. To be noted: MCA, BA and circle of Willis grouped; SAH rats. The protocol:
(§1) To quantify mRNA for the ETA, ETB and 5-HT1B receptors, RT-PCR and real-time detection monitoring the PCR products was employed. Total cellular RNA was extracted from BA, MCA and circle of Willis using the Trizol RNA isolation kit (Invitrogen, USA) following the suppliers instructions. Briefly, the arteries were homogenized in 1 ml of Trizol (Invitrogen, Sweden) by using a TissueLyser (VWR, Sweden). Subsequently 200 μl of chloroform was added and the samples were incubated in room temperature for 3 min, followed by centrifugation at 15000 g for 15 min at 4° C. The supernatant was collected and the organic phase discarded. 200 μl of chloroform was again added to remove all traces of phenol and the samples were centrifuged at 15000 g for 15 at 4° C. The aqueous supernatant was again collected and to precipitate the RNA equal amount of isopropanol was added and the samples incubated overnight at −20° C.
(§2) Subsequently, the RNA was centrifuged at 15000 g for 20 min at 4° C. […] Total RNA was determined using a GeneQuant Pro spectrophotometer measuring absorbance at 260/280 (Amersham Pharmacia Biotech, Uppsala, Sweden).
(§3) Reverse transcription of total RNA to cDNA was carried out using the Gene Amp RNA kit (Perkin-Elmer Applied Biosystems, USA) in a Perkin-Elmer 2400 PCR machine at 42° C. for 90 min and then 72° C. for 10 min. The real-time quantitative PCR was performed with the GeneAmp SYBR Green PCR kit (PE Applied Biosystems) in a Perkin-Elmer real-time PCR machine (GeneAmp 5700 sequence detection system). […] The system automatically monitors the binding of a fluorescent dye to double-strand DNA by real-time detection of the fluorescence during each cycle of PCR amplification. […]
(§4) PCR experiments were performed on BA, MCA and circle of Willis from SAH, SAH treated with raf inhibitor or PKC inhibitor and sham operated rats. Data were analysed with the comparative cycle threshold (CT) method (28). The CT values of EF-1 mRNA were used as a reference to quantify the relative amount of ETA, ETB and 5-HT1B mRNA. […]
For orientation: In qPCR the cycle at which signal appears reflects the starting amount.

A further experiment deals with ETB receptor mRNA. Described as above. The following applies: MCA, BA and circle of Willis grouped; SAH rats. On the procedure: as §1, §2, §3, §4
The test system of another experiment is AT1 receptor protein. Description: Immunohistochemistry of cerebral arteries after SAH. The following applies: smooth muscle cell layer; sham 100±7%, SAH 168±7%. An excerpt:
(§5) The MCA and BA were dissected out and then placed onto Tissue TEK (Gibco) and frozen. They were then sectioned into 10 μm thick slices. The primary antibodies used were rabbit antihuman ETB (IBL, 16207), diluted 1:400, goat anti mouse 5-HT1B (Santa Cruz Biotechnologies, sc-1461), diluted 1:100, AT1 (Santa Cruz Biotechnologies), diluted 1:100, mouse anti rat CD31 (Serotec, MCA1746), diluted 1:200, and mouse anti rat smooth muscle actin (Serotec, MCA1905T) diluted 1:100. All dilutions were done in PBS with 10% fetal calf serum. The secondary antibodies used were donkeyantimouse Cy™5 conjugated (JacksonImmunoResearch, 715-175-150) 1:100, donkeyantirabbit Cy™3 conjugated (JacksonImmunoResearch, 711-165-152) 1:100 in PBS with 10% fetal calf serum. The antibodies were detected at the appropriate wavelength in a confocal microscopy (Zeiss, USA). As control, only secondary antibodies were used.
(§6) The images were analysed using the ImageJsoftware (http://rsb.info.nih.gov/ij/). The fluorescence in 4-6 different areas in each artery was measured and a mean value was calculated. These values are presented as percentage fluorescence in the SAH groups compared to the sham group, where the sham group is set to 100%.

The subject of a further experiment is ETB receptor protein. The description is as above. To be noted: smooth muscle cell layer; sham 100±3%, SAH 167±4%.
Text: as §5, §6

Another experiment deals with pERK1/2. Described as above. To be noted: smooth muscle cells; sham 100±3%, SAH 188±7%.

The values that follow come from patent publication US8273771B2, “Ischemic disorder or disease inhibitors” (Pronas Pharma AB, priority 2007, dated 2012).

For `Oc1cc(-c2nc(-c3ccccc3)[nH]c2-c2ccncc2)ccc1Cl` [SB386023-b], the “enhanced expression of 5-HT1B receptor mRNA” value with 5-HT1B receptor mRNA is “inhibited”. Moreover, in the experiment on ETB receptor mRNA, the “enhanced expression of ETB receptor mRNA” value is “inhibited”. The “AT1 receptor protein level, fluorescence compared to sham” value in the experiment on AT1 receptor protein amounted to 105±10%. Also, the “ETB receptor protein level, fluorescence compared to sham” value in the experiment with ETB receptor protein is listed as 109±5%. Besides, in the experiment with pERK1/2, the “pERK1/2 level, fluorescence compared to sham” value is 102±5%.
